Experimental data reported in patent publication US8278452B2, “Heterocyclic compounds and compositions as c-kit and PDGFR kinase inhibitors” (IRM LLC, priority 2008, dated 2012).

These molecules were tested on Mo7e cells which endogenously express c-kit (assay: Mo7e assay: inhibition of SCF dependent proliferation (MTT)). Conditions: Table 1; SCF stimulated Mo7e cells, 48 hours, MTT.
Format: cell-based
In short: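 Mo7e cells stimulated with human recombinant SCF and exposed to two-fold serial compound dilutions from a top concentration of 10 μM. After 48 h at 37 °C, viability measured by MTT colorimetric assay; IC50 derived.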

With `Cc1ccc(-c2nc(Nc3ccc(C)c(-c4cc5cnc(C)cc5n(C)c4=O)c3)no2)cn1` [Compound A51, 1,7-dimethyl-3-(2-methyl-5-(5-(6-methylpyridin-3-yl)-1,2,4-oxadiazol-3-ylamino)phenyl)-1,6-naphthyridin-2(1H)-one] as the molecule, how does the IC50 read?
Its IC50 is 119 nM.

For `Cc1cc2c(cn1)cc(-c1cc(Nc3cc(-c4ccc(F)cc4Cl)on3)ccc1C)c(=O)n2C` [Compound D8], which IC50 is on record?
Its IC50 is 361 nM.

`Cc1cc2c(cn1)cc(-c1cc(Nc3noc(-c4cc(C)oc4C)n3)ccc1C)c(=O)n2C` [Compound A2, 3-(5-{[5-(2,5-dimethylfuran-3-yl)-1,2,4-oxadiazol-3-yl]amino}-2-methylphenyl)-1,7-dimethyl-1,2-dihydro-1,6-naphthyridin-2-one] was tested. Which IC50 did it give?
Its IC50 is 126 nM.

For `Cc1cc2c(cn1)cc(-c1cc(Nc3nnc(CC(C)(C)C)[nH]3)ccc1C)c(=O)n2C` [Compound C5, 3-(5-{[5-(2,2-dimethylpropyl)-4H-1,2,4-triazol-3-yl]amino}-2-methylphenyl)-1,7-dimethyl-1,2-dihydro-1,6-naphthyridin-2-one], which IC50 is on record?
The IC50 was 320 nM.

How did the IC50 turn out when `Cc1cc2c(cn1)cc(-c1cc(Nc3noc(-c4ccc(F)cc4)n3)ccc1C)c(=O)n2C` [Compound A24, 3-(5-{[5-(4-fluorophenyl)-1,2,4-oxadiazol-3-yl]amino}-2-methylphenyl)-1,7-dimethyl-1,2-dihydro-1,6-naphthyridin-2-one] was run?
The IC50 was 36 nM.

How did the IC50 turn out when `Cc1cc2c(cn1)cc(-c1cc(Nc3noc(-c4ccccc4)c3C)ccc1C)c(=O)n2C` [Compound D10] was run?
The IC50 was 339 nM.

For `Cc1cc2c(cn1)cc(-c1cc(Nc3noc(C(O)C(C)C)n3)ccc1C)c(=O)n2C` (stereo not shown) [Compound A64, 3-(5-(5-(1-hydroxy-2-methylpropyl)-1,2,4-oxadiazol-3-ylamino)-2-methylphenyl)-1,7-dimethyl-1,6-naphthyridin-2(1H)-one], which IC50 is on record?
The IC50 was 118 nM.

With `Cc1cc2c(cn1)cc(-c1cc(Nc3noc(C4CCOCC4)n3)ccc1C)c(=O)n2C` [Compound A33, 1,7-dimethyl-3-(2-methyl-5-{[5-(oxan-4-yl)-1,2,4-oxadiazol-3-yl]amino}phenyl)-1,2-dihydro-1,6-naphthyridin-2-one] as the molecule, how does the IC50 read?
The IC50 was 444 nM.

With `Cc1cccc(-c2nc(Nc3ccc(C)c(-c4cc5cnc(C)cc5n(C)c4=O)c3)no2)c1` [Compound A17, 1,7-dimethyl-3-(2-methyl-5-{[5-(3-methylphenyl)-1,2,4-oxadiazol-3-yl]amino}phenyl)-1,2-dihydro-1,6-naphthyridin-2-one] as the molecule, how does the IC50 read?
The IC50 was 241 nM.

For `CO[C@@H](C)c1nc(Nc2ccc(C)c(-c3cc4cnc(C)cc4n(C)c3=O)c2)no1` [Compound A76, (S)-3-(5-(5-(1-methoxyethyl)-1,2,4-oxadiazol-3-ylamino)-2-methylphenyl)-1,7-dimethyl-1,6-naphthyridin-2(1H)-one], which IC50 is on record?
Its IC50 is 142 nM.

For `Cc1cc2c(cn1)cc(-c1cc(Nc3noc(-c4cnccn4)n3)ccc1C)c(=O)n2C` [Compound A70, 1,7-dimethyl-3-(2-methyl-5-{[5-(pyrazin-2-yl)-1,2,4-oxadiazol-3-yl]amino}phenyl)-1,2-dihydro-1,6-naphthyridin-2-one], which IC50 is on record?
Its IC50 is 211 nM.

Which IC50 does the source give for `CCC(C)c1nc(Nc2ccc(C)c(-c3cc4cnc(C)cc4n(C)c3=O)c2)no1` (stereo in doubt) [Compound A27, 3-[5-({5-[(2S)-butan-2-yl]-1,2,4-oxadiazol-3-yl}amino)-2-methylphenyl]-1,7-dimethyl-1,2-dihydro-1,6-naphthyridin-2-one] here?
The IC50 was 54 nM.

Which IC50 does the source give for `Cc1cc2c(cn1)cc(-c1cc(Nc3noc(-c4cccc(O)n4)n3)ccc1C)c(=O)n2C` [Compound A42, 3-(5-{[5-(6-hydroxypyridin-2-yl)-1,2,4-oxadiazol-3-yl]amino}-2-methylphenyl)-1,7-dimethyl-1,2-dihydro-1,6-naphthyridin-2-one] here?
The IC50 was 265 nM.

`Cc1cc2c(cn1)cc(-c1cc(Nc3noc(-c4ccc(C)nc4Cl)n3)ccc1C)c(=O)n2C` [Compound A48, 3-(5-{[5-(2-chloro-6-methylpyridin-3-yl)-1,2,4-oxadiazol-3-yl]amino}-2-methylphenyl)-1,7-dimethyl-1,2-dihydro-1,6-naphthyridin-2-one] was tested. Which IC50 did it give?
Its IC50 is 361 nM.

Which IC50 does the source give for `Cc1cc2c(cn1)cc(-c1cc(Nc3cc(-c4ccc(Cl)nc4)on3)ccc1C)c(=O)n2C` [Compound D12] here?
The IC50 was 198 nM.

`Cc1cc2c(cn1)cc(-c1cc(Nc3nnc(-c4ccccc4)s3)ccc1C)c(=O)n2C` [Compound H1, 1,7-dimethyl-3-(2-methyl-5-(5-phenyl-1,3,4-thiadiazol-2-ylamino)phenyl)-1,6-naphthyridin-2(1H)-one] was tested. Which IC50 did it give?
Its IC50 is 552 nM.

How did the IC50 turn out when `Cc1cc2c(cn1)cc(-c1cc(Nc3nnc(-c4cccc(Cl)c4)[nH]3)ccc1C)c(=O)n2C` [Compound C7, 3-(5-{[5-(3-chlorophenyl)-4H-1,2,4-triazol-3-yl]amino}-2-methylphenyl)-1,7-dimethyl-1,2-dihydro-1,6-naphthyridin-2-one] was run?
The IC50 was 378 nM.

`Cc1cc2c(cn1)cc(-c1cc(Nc3noc(-c4ccc(F)cc4F)n3)ccc1C)c(=O)n2C` [Compound A61, 3-(5-{[5-(2,4-difluorophenyl)-1,2,4-oxadiazol-3-yl]amino}-2-methylphenyl)-1,7-dimethyl-1,2-dihydro-1,6-naphthyridin-2-one] was tested. Which IC50 did it give?
Its IC50 is 97 nM.

With `Cc1cc2c(cn1)cc(-c1cc(Nc3noc(-c4nccs4)n3)ccc1C)c(=O)n2C` [Compound A9, 1,7-dimethyl-3-(2-methyl-5-(5-(thiazol-2-yl)-1,2,4-oxadiazol-3-ylamino)phenyl)-1,6-naphthyridin-2(1H)-one] as the molecule, how does the IC50 read?
Its IC50 is 204 nM.

Which IC50 does the source give for `Cc1cc2c(cn1)cc(-c1cc(Nc3noc(C4CC(O)C4)n3)ccc1C)c(=O)n2C` (stereo not shown) [Compound A83, 3-(5-{[5-(3-hydroxycyclobutyl)-1,2,4-oxadiazol-3-yl]amino}-2-methylphenyl)-1,7-dimethyl-1,2-dihydro-1,6-naphthyridin-2-one] here?
The IC50 was 251 nM.

For `Cc1cc2c(cn1)cc(-c1cc(Nc3nnc(C4CC4)o3)ccc1C)c(=O)n2C` [Compound B9, 3-{5-[(5-cyclopropyl-1,3,4-oxadiazol-2-yl)amino]-2-methylphenyl}-1,7-dimethyl-1,2-dihydro-1,6-naphthyridin-2-one], which IC50 is on record?
Its IC50 is 334 nM.

How did the IC50 turn out when `Cc1cc2c(cn1)cc(-c1cc(Nc3cc(-c4ccccn4)on3)ccc1C)c(=O)n2C` [Compound D3] was run?
Its IC50 is 158 nM.

How did the IC50 turn out when `Cc1cc2c(cn1)cc(-c1cc(Nc3noc(C4CCCCC4)n3)ccc1C)c(=O)n2C` [Compound A18, 3-{5-[(5-cyclohexyl-1,2,4-oxadiazol-3-yl)amino]-2-methylphenyl}-1,7-dimethyl-1,2-dihydro-1,6-naphthyridin-2-one] was run?
Its IC50 is 179 nM.

Which IC50 does the source give for `COc1ccc(-c2nnc(Nc3ccc(C)c(-c4cc5cnc(C)cc5n(C)c4=O)c3)o2)cc1` [Compound B2, 3-(5-{[5-(4-methoxyphenyl)-1,3,4-oxadiazol-2-yl]amino}-2-methylphenyl)-1,7-dimethyl-1,2-dihydro-1,6-naphthyridin-2-one] here?
Its IC50 is 85 nM.

Which IC50 does the source give for `Cc1cc2c(cn1)cc(-c1cc(Nc3noc(-c4ccc(O)cc4)n3)ccc1C)c(=O)n2C` [Compound A36, 3-(5-{[5-(4-hydroxyphenyl)-1,2,4-oxadiazol-3-yl]amino}-2-methylphenyl)-1,7-dimethyl-1,2-dihydro-1,6-naphthyridin-2-one] here?
The IC50 was 375 nM.

With `COc1ccc(-c2nc(Nc3ccc(C)c(-c4cc5cnc(C)cc5n(C)c4=O)c3)no2)cn1` [Compound A87, 3-(5-{[5-(6-methoxypyridin-3-yl)-1,2,4-oxadiazol-3-yl]amino}-2-methylphenyl)-1,7-dimethyl-1,2-dihydro-1,6-naphthyridin-2-one] as the molecule, how does the IC50 read?
The IC50 was 95 nM.

Which IC50 does the source give for `Cc1cc2c(cn1)cc(-c1cc(Nc3noc(C4CC(C)(O)C4)n3)ccc1C)c(=O)n2C` (stereo not shown) [Compound A84, 3-(5-{[5-(3-hydroxy-3-methylcyclobutyl)-1,2,4-oxadiazol-3-yl]amino}-2-methylphenyl)-1,7-dimethyl-1,2-dihydro-1,6-naphthyridin-2-one] here?
Its IC50 is 176 nM.

With `Cc1cc2c(cn1)cc(-c1cc(Nc3noc(-c4cccc(O)c4)n3)ccc1C)c(=O)n2C` [Compound A39, 3-(5-{[5-(3-hydroxyphenyl)-1,2,4-oxadiazol-3-yl]amino}-2-methylphenyl)-1,7-dimethyl-1,2-dihydro-1,6-naphthyridin-2-one] as the molecule, how does the IC50 read?
The IC50 was 480 nM.

Which IC50 does the source give for `Cc1cc2c(cn1)cc(-c1cc(Nc3noc(C4Cc5ccccc5O4)n3)ccc1C)c(=O)n2C` (stereo not shown) [Compound A98, 3-(5-{[5-(2,3-dihydro-1-benzofuran-2-yl)-1,2,4-oxadiazol-3-yl]amino}-2-methylphenyl)-1,7-dimethyl-1,2-dihydro-1,6-naphthyridin-2-one] here?
Its IC50 is 389 nM.

For `Cc1cc2c(cn1)cc(-c1cc(Nc3noc([C@H]4CCCO4)n3)ccc1C)c(=O)n2C` [Compound A75, 1,7-dimethyl-3-[2-methyl-5-({5-[(2R)-oxolan-2-yl]-1,2,4-oxadiazol-3-yl}amino)phenyl]-1,2-dihydro-1,6-naphthyridin-2-one], which IC50 is on record?
The IC50 was 40 nM.

Which IC50 does the source give for `COc1cc(C)ccc1-c1nc(Nc2ccc(C)c(-c3cc4cnc(C)cc4n(C)c3=O)c2)no1` [Compound A80, 3-(5-{[5-(2-methoxy-4-methylphenyl)-1,2,4-oxadiazol-3-yl]amino}-2-methylphenyl)-1,7-dimethyl-1,2-dihydro-1,6-naphthyridin-2-one] here?
Its IC50 is 338 nM.

Which IC50 does the source give for `Cc1cc2c(cn1)cc(-c1cc(Nc3noc(-c4cccc(Cl)n4)n3)ccc1C)c(=O)n2C` [Compound A49, 3-(5-{[5-(6-chloropyridin-2-yl)-1,2,4-oxadiazol-3-yl]amino}-2-methylphenyl)-1,7-dimethyl-1,2-dihydro-1,6-naphthyridin-2-one] here?
Its IC50 is 333 nM.

With `Cc1cc2c(cn1)cc(-c1cc(Nc3nnc(C4CCCCC4)[nH]3)ccc1C)c(=O)n2C` [Compound C3, 3-{5-[(5-cyclohexyl-4H-1,2,4-triazol-3-yl)amino]-2-methylphenyl}-1,7-dimethyl-1,2-dihydro-1,6-naphthyridin-2-one] as the molecule, how does the IC50 read?
The IC50 was 279 nM.

Which IC50 does the source give for `Cc1ccc(-c2nc(Nc3ccc(C)c(-c4cc5cnc(C)cc5n(C)c4=O)c3)no2)nc1` [Compound A102, 1,7-dimethyl-3-(2-methyl-5-{[5-(5-methylpyridin-2-yl)-1,2,4-oxadiazol-3-yl]amino}phenyl)-1,2-dihydro-1,6-naphthyridin-2-one] here?
Its IC50 is 113 nM.
